The nature of data set [1]: Cytotoxicity against human MCF7/ADR cells assessed as cell survival at 10 uM after 48 hrs by MTT assay relative to control. As to conditions: MCF7/ADR cells (NCI/ADR-RES), read-out: Survival. Type of data set: cell-based. Background: Tetrazolium dyes change colour on reduction, which living cells bring about.
The species named for data set [2] is Homo sapiens. Put plainly: Stimulation of human Pgp ATPase activity expressed in cell membranes at 2.5 uM after 1 hr by P-gp Glo assay relative to control.
The species named for data set [3] is Homo sapiens. Put plainly: Inhibition of P-gp in human MCF7/ADR cells assessed as increase in doxorubicin accumulation in cells up to 20 uM after 150 mins by fluorescence assay relative to control. It is filed as cell-based.
The nature of data set [4]: Competitive inhibition of P-gp in human MCF7/ADR cells after 150 mins in presence of doxorubicin by Lineweaver-Burk plot analysis. Type of data set: cell-based.
Data set [5] is filed under the species Homo sapiens. In words: Inhibition of P-gp in human MCF7/ADR cells assessed as concentration required to restore doxorubicin accumulation in cells after 150 mins by fluorescence assay relative to MCF7 cells. It is filed as cell-based.
For data set [6], the system named is NCI/ADR-RES. In words: Cytotoxicity against human MCF7/ADR cells after 48 hrs by MTT assay. It is filed as cell-based.
For data set [7], the species on record is Homo sapiens. In words: Inhibition of P-gp mediated efflux in human MCF7/ADR cells after 4 hrs by Rh123 dye-based flow cytometric method. Type of data set: cell-based.
The species entered for data set [8] is Homo sapiens. Put plainly: Stimulation of human Pgp ATPase activity expressed in cell membranes at 50 uM after 1 hr by P-gp Glo assay relative to control.
Data set [9] concerns P-gp. In words: Therapeutic index, ratio of IC50 for HEK293 cells to EC50 for inhibition of P-gp in human MCF7/ADR cells assessed as potentiation of doxorubicin-induced cytotoxicity. Type of data set: toxicity, cell-based. As to conditions: HEK293 cells (IC50) and MCF7/ADR cells (EC50).
For data set [10], the species on record is Homo sapiens. Put plainly: Inhibition of P-gp in human MCF7/ADR cells assessed as potentiation of docetaxel-induced cytotoxicity at 10 uM after 48 hrs by MTT assay relative to control. It is filed as cell-based.
Data set [11] in a line: Competitive inhibition of P-gp in human MCF7/ADR cells after 150 mins in presence of doxorubicin by Dixon plot analysis. Type of data set: cell-based.
The nature of data set [12]: Inhibition of P-gp in human MCF7/ADR cells assessed as potentiation of doxorubicin-induced cytotoxicity after 48 hrs by MTT assay. As to conditions: NCI/ADR-RES. It is filed as cell-based.
The species entered for data set [13] is Homo sapiens. Put plainly: Inhibition of P-gp in human MCF7/ADR cells assessed as potentiation of doxorubicin-induced cytotoxicity at 1 uM preincubated with cells followed by compound washout and subsequent incubation for 6 hrs prior to addition of doxorubicin and measured after 48 hrs by MTT assay relative to control. It is filed as cell-based.
The species entered for data set [14] is Homo sapiens. In words: Inhibition of P-gp in human MCF7/ADR cells assessed as potentiation of doxorubicin-induced cytotoxicity at 10 uM after 48 hrs by MTT assay relative to control. Type of data set: cell-based.
The species entered for data set [15] is Homo sapiens. In words: Inhibition of P-gp in human MCF7/ADR cells assessed as potentiation of vincristine-induced cytotoxicity at 10 uM after 48 hrs by MTT assay relative to control. Type of data set: cell-based.
Data set [16] has as its system HEK293. In words: Cytotoxicity against HEK293 cells after 48 hrs by MTT assay. Type of data set: cell-based. As to conditions: Homo sapiens, HEK293, 48 h.
Data set [17] can be described thus: Cytotoxicity against human MCF7 cells assessed as cell survival at 10 uM after 48 hrs by MTT assay relative to control. It is filed as cell-based. As to conditions: read-out: Survival.
The species named for data set [18] is Homo sapiens. In words: Inhibition of P-gp in human MCF7/ADR cells assessed as increase in doxorubicin accumulation in cells after 150 mins by fluorescence assay. Type of data set: cell-based.
The test system of data set [19] is MCF7. Put plainly: Cytotoxicity against human MCF7 cells after 48 hrs by MTT assay. It is filed as cell-based. As to conditions: MCF7, 48 h.
The test system of data set [20] is NCI/ADR-RES. Put plainly: Inhibition of P-gp expression in human MCF7/ADR cells at 5 to 10 uM after 48 hrs by Western blot analysis. Type of data set: functional, cell-based. A general note: Immunoblotting shows a protein as a band on a membrane.

The source made the active and inactive calls. The calls are words filed in the database; no cut-off is given here.

One may read the Ki as the dissociation constant of the complex between target and ligand, obtained from inhibition or displacement. One may read the IC50 as the point on the concentration scale where inhibition reaches its midpoint. The EC50 is the concentration that produces a half-maximal response. As to `C=C1[C@H](OC(=O)C(C)C)[C@@H](OC(C)=O)[C@@H](OC(C)=O)C(C)(C)/C=C/[C@H](C)[C@H](OC(=O)c2ccccc2)[C@@]2(O)C[C@@](C)(OC(C)=O)[C@H](OC(C)=O)[C@@H]2[C@H]1OC(=O)C(C)CC` (stereo not given in full), the viability at 48 h, 10 µM in data set [1] was determined as 91.8%; in data set [17], 91.4%. For the same molecule, the fold change (FC) came to 1.34 in data set [2]; 2.15 in [3]; 2.22 in [8]; 3.42 in data set [10]; 1.43 in data set [13]; 36.8 in [14]. Further, the fold change (FC) in [15] came to 2.17. Besides, the results for the Ki in data set [4] and in data set [11] were 490 nM and 500 nM, respectively. In addition, the Activity in data set [5] was determined as 10 µM. Further, the IC50 in data set [6] is above 100000 nM; in [16], 98200 nM; in [19], above 100000 nM. For the same molecule, the inhibition entry in [7] and in data set [18] was “Dose-dependent effect” in each case. Besides, the selectivity ratio in [9] stood at 1060. Besides, the concentration for a half-maximal effect (EC50) in data set [12] was determined as 92.7 nM. Also, the inhibition entry in data set [20] was “inactive”.

For the origin of these results see ChEMBL document CHEMBL4145504, “Jatrophane diterpenoids from Euphorbia sororia as potent modulators against P-glycoprotein-based multidrug resistance” (Eur J Med Chem, 2018).
